# Measured values from publication PMC11938014, “Development and Application of Small Molecule–Peptide Conjugates as Cathepsin K-Specific Covalent Irreversible Inhibitors in Human Osteoclast and Lung Cancer” (JACS Au, 2025).
# What was measured:
# [1] = molecular target: T1, Recombinant human cathepsin S (Homo sapiens, UniProt P25774); assay: Recombinant cathepsin inhibition, gel-based competition with GB123 probe; type: biochemical; conditions: Figure 2, read-out: IC50 [μM] CTSS
# T1 construct: made in house
# T1 sequence (P25774 115-331): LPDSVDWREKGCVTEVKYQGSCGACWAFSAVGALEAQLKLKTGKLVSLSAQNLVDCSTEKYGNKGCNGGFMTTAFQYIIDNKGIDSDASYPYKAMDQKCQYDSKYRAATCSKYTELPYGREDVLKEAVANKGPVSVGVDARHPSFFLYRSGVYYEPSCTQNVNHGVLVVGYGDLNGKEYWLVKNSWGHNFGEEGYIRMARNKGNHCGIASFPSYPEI
# Description: In-gel fluorescence analysis was used to detect the residual activity of the cathepsins by applying pan-cathepsin probe GB123 to detect the stable enzyme–probe complex. This approach is used for testing inhibition and selectivity.[37],[41]
# Recombinant human cathepsin L (0.5 μM), cathepsin B (0.5 μM), cathepsin K (0.5 μM), and cathepsin S (0.5 μM) were pretreated with different concentrations of inhibitors (GD compounds, odanacatib) for 1 h in reaction buffer (50 mM acetate, 2 mM dithiothreitol (DTT), and 5 mM MgCl2, pH 5.5) at 37 °C. GB123 (1 μM) was added and incubated with samples for 60 min at 37 °C.[37],[41] The reaction was stopped by the addition of sample buffer 4× (40% glycerol, 0.2 M Tris/HCl pH 6.8, 20% β-mercaptoethanol, 12% SDS, and 0.4 mg/mL bromophenol blue). Samples were then boiled, separated on a 12.5% SDS gel, and scanned for fluorescence by a Typhoon scanner FLA 9500 at excitation and emission wavelengths of 635 and 670 nm for GB123.
# [2] = molecular target: T2, CTSB (Homo sapiens, UniProt P07858); assay: Kinetic evaluation of recombinant cathepsin inhibition, fluorogenic substrate Z-FR-AMC; type: biochemical
# T2 construct: made in house
# Description: (§1) Cathepsin (0.4 nM, CatK) or 5 nM (CatS, CatB, and CatL) were each mixed with inhibitors before adding the fluorogenic substrate. The proteases were then reacted with their substrates, Z-RR-AMC (CatL) or Z-FR-AMC (CatS, CatB, and CatK), for 30 min at 37 °C in the phosphate buffer (100 mM Na2HPO4/NaH2PO4, 50 mM NaCl, 5 mM DTT, 0.1% PEG-6000, at pH 6). Reactions were done in 96-well black flat-bottom microplates (Greiner, Germany); fluorescence (Ex/Em 370 and 460 nm) was measured by a Tecan INFINITE M1000 pro plate reader (Tecan, Switzerland) in the presence of inhibitors or vehicle. For irreversible inhibitors, reaction data were analyzed by using the one-phase association formula in GraphPad Prism 9 software: Y = Y0 + (plateau – Y0) × (1 – exp(−K × X)), where Y0 and Y denote the fluorescence signals at times 0 and t, respectively, K represents the observed reaction rate kobs, and X signifies the […]. The inactivation rates at each inhibitor concentration were determined by subtracting the inactivation observed in the control sample: kobs – kctrl. The maximum inactivation rate (kinact) was derived as the asymptote from the equation Y = kinact × X/(Ki^app + X), where X represents the inhibitor concentration, Y is the observed inactivation rate for each X, and Ki^app is the apparent inhibition constant. Ki values were derived from IC50 or Ki^app using the equations Ki = Ki^app/(1 + […]) and IC50 = E0/2 + Ki^app, where Km represents the Michaelis–Menten constant, S denotes substrate concentration, and E0 indicates cathepsin concentration. The maximum inhibitor dose in the experiment was 50 μM. Measurements were conducted in multiple independent duplicates. Average values are listed.
# [3] = molecular target: T3, CTSL (Homo sapiens, UniProt P07711); assay: Kinetic evaluation of recombinant cathepsin inhibition, fluorogenic substrate Z-RR-AMC; type: biochemical
# T3 construct: made in house
# T3 sequence (P07711 114-333): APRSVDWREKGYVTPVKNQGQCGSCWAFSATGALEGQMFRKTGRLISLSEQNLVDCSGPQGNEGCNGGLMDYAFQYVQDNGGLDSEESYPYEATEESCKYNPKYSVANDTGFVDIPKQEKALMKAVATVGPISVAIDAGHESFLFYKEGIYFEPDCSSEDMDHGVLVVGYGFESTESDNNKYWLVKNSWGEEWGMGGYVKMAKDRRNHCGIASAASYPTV
# Description: as §1
# [4] = molecular target: T4, endogenous cathepsin K in the nucleus of human osteoclast (Homo sapiens, UniProt P43235); assay: Fluorescence microscopy of nuclear CTSK inhibition (GD32 probe); type: cell-based; conditions: 3 μM, 2 h, then GD32 8 h
# T4 construct: endogenous in cells; host or cells: primary human osteoclasts differentiated from blood monocytes with M-CSF and RANKL
# T4 sequence (P43235 115-329): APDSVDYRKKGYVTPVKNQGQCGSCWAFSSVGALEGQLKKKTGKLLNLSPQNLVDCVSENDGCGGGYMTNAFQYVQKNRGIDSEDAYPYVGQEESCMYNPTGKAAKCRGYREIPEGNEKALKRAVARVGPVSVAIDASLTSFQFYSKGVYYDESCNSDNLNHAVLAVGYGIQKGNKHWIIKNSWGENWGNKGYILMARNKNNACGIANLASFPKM
# Excerpt: We have generated inhibitors that block nuclear CTSK activity for the first time. […] CTSK activity labeled by a specific fluorescence ABP, GD32, was detected in the nucleus and nucleoli of osteoclasts, as reported by Dey et al.[19] The CTSK nuclear signal was completely eliminated in the presence of the inhibitors (Figure 9). These inhibitors can facilitate studying CTSK nuclear activity.
# Figure 9 Detection of inhibition of endogenous cathepsin K in the nucleus of human osteoclast by fluorescence microscopy. (a) Osteoclast cells were treated with GD20 or GD38 inhibitors [3 μM] or DMSO vehicle in culture medium for 2 h, followed by incubation with GD32 for 8 h, as shown in Figure 8a. Cells were then fixed and stained with DAPI (nucleus), and Z stack images were captured by confocal microscopy. The white arrows indicate the nucleus. […] Red fluorescence is CTSK activity labeled by the ABP (GD32) and blue fluorescence (DAPI). (b) Microscopy image analysis software Imaris 10.0.1 was used to produce a three-dimensional (3D) surface rendering image of a cell nucleus (transparent blue) and CTSK inside it (opaque red) on top of the original image (blue, DAPI; red, GD32). The thresholds for the surfaces were chosen to emphasize CTSK inside the nucleus. One nucleus for each treatment was chosen from pictures in (a). […]
IC50 [1] [µM],Ki ([2]; maximum inhibitor dose 50 μM) [µM],Ki ([3]; maximum inhibitor dose 50 μM) [µM],nuclear CTSK activity labeled by GD32 [4],"type of inhibition, CTSB [2]",Ki ([2]; irreversible inhibitor) [µM],"kinact ([2]; read-out: kinact (at 50 μM), CTSB) [s⁻¹]","type of inhibition, CTSL [3]",Ki ([3]; irreversible inhibitor) [µM],"kinact ([3]; read-out: kinact (at 50 μM), CTSL) [s⁻¹]",SMILES
13 ± 2.8,> 50,> 50,block CTSK activity in the nucleolus,,,,,,,CC(C)C[C@H](N[C@@H](c1ccc(-c2ccc(S(C)(=O)=O)cc2)cc1)C(F)(F)F)C(=O)NCC(=O)COC(=O)[C@@H]1CCCN1C(=O)[C@H](CC(C)C)NC(=O)OCC1c2ccccc2-c2ccccc21 [GD20]
8.3 ± 2.3,,,block CTSK activity in the nucleolus,irreversible,> 50,0.0072,irreversible,> 50,0.0045,CC(C)C[C@H](N[C@@H](c1ccc(-c2ccc(S(C)(=O)=O)cc2)cc1)C(F)(F)F)C(=O)NCC(=O)COC(=O)[C@@H]1CCCN1C(=O)[C@H](CCC(N)=O)NC(=O)OCC1c2ccccc2-c2ccccc21 [GD38]
